For 15 compounds, IC50, Dmax and DC50 results are on record in patent publication US12139492B2 (Endotarget Inc., priority 2021, dated 2024).

Common to all, as to assay type: cell-based
Assay [1] has as its system JeKo-1 cells. Briefly: Antiproliferative effect, MTS cell viability assay, JeKo-1 cells. Particulars: Homo sapiens; JeKo-1 mantle cell lymphoma cells; read-out: IC50 (anti-proliferation) JeKO-1 cells. A digest of the protocol:
(§1)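 Mino and JeKo-1 mantle B-cell lymphoma lines were exposed to compound at 0, 0.001, 0.01, 0.1, 1 and 10 μM for 72 h. Viability was read by MTS reduction to formazan, measured as absorbance at 490 nm.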
In general terms: Tetrazolium dyes change colour on reduction, which living cells bring about.

Assay [2] concerns Mino cells. Briefly: Antiproliferative effect, MTS cell viability assay, Mino cells. Particulars: Homo sapiens, MINO, Mino mantle cell lymphoma cells; read-out: IC50 (anti-proliferation) Mino cells. A digest of the protocol: as §1
The target of assay [3] is BTK (Homo sapiens, UniProt Q06187). As to the kind of experiment: BTK degradation, DC50 and Dmax of Table 1 (cell line not given). Particulars: for DC50: concentration giving 50% reduction of BTK expression level. On the set-up: endogenous in cells.

pIC50: −log10 of the molar value.

Sequence of BTK (Q06187 whole entry): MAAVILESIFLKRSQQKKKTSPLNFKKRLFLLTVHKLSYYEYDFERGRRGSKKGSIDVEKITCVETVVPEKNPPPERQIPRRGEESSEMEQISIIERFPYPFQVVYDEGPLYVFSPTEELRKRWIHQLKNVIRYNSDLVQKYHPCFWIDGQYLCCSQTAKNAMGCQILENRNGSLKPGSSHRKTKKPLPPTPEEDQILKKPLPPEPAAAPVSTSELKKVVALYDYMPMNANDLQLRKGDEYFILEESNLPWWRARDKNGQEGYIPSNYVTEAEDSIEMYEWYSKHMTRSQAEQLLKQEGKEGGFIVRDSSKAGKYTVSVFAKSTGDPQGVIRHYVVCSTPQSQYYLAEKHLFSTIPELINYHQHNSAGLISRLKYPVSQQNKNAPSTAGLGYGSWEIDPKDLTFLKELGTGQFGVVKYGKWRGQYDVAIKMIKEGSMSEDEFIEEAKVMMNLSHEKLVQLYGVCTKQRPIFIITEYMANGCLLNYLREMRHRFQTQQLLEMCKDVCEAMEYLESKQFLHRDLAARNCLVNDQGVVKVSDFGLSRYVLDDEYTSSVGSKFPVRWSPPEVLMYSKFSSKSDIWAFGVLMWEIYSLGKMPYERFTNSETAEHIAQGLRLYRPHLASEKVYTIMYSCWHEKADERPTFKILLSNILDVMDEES

Regarding `Nc1ncnc2c1c(-c1ccc(Oc3ccccc3)cc1)nn2[C@@H]1CCCN(C(=O)N2CCC(CCCN3CCC(c4ccc5c(c4)C(=O)N(C4CCC(=O)NC4=O)C5=O)CC3)CC2)C1` (stereo partly drawn) [Compound 115, 5-(1-(3-(1-((R)-3-(4-amino-3-(4-phenoxyphenyl)-1H-pyrazolo[3,4-d]pyrimidin-1-yl)piperidine-1-carbonyl)piperidin-4-yl)propyl)piperidin-4-yl)-2-(2,6-dioxopiperidin-3-yl)isoindoline-1,3-dione], the pIC50 in assay [1] is less than 5.00; in assay [2] it was 5.00 to 6.00. The same compound returned a maximal degradation (Dmax) in assay [3] greater than 75%. For the same compound, the 50% degradation concentration (DC50) in assay [3] is greater than 50 nM.
The corresponding values for `Nc1ncnc2c1c(-c1ccc(Oc3ccccc3)cc1)nn2[C@@H]1CCCN(C(=O)N2CCC(CCCN3CCC(c4ccc5c(c4)CN(C4CCC(=O)NC4=O)C5=O)CC3)CC2)C1` (stereo partly drawn) [Compound 116, 3-(5-(1-(3-(1-((R)-3-(4-amino-3-(4-phenoxyphenyl)-1H-pyrazolo[3,4-d]pyrimidin-1-yl)piperidine-1-carbonyl)piperidin-4-yl)propyl)piperidin-4-yl)-1-oxoisoindolin-2-yl)piperidine-2,6-dione] are less than 5.00, less than 5.00, greater than 75% and greater than 50 nM.
On the same counts, the results for `Nc1ncnc2c1c(-c1ccc(Oc3ccccc3)cc1)nn2C1CCN(C(=O)N2CCC(CCCN3CCN(c4ccc5c(c4)C(=O)N(C4CCC(=O)NC4=O)C5=O)CC3)CC2)CC1` (stereo not drawn) [Compound 117, 5-(4-(3-(1-(4-(4-amino-3-(4-phenoxyphenyl)-1H-pyrazolo[3,4-d]pyrimidin-1-yl)piperidine-1-carbonyl)-piperidin-4-yl)propyl)piperazin-1-yl)-2-(2,6-dioxopiperidin-3-yl)isoindoline-1,3-dione] are 5.00 to 6.00, 5.00 to 6.00, greater than 75% and greater than 50 nM.
Regarding `Nc1ncnc2c1c(-c1ccc(Oc3ccccc3)cc1)nn2C1CCN(C(=O)N2CCC(CCCN3CCN(c4ccc5c(c4)CN(C4CCC(=O)NC4=O)C5=O)CC3)CC2)CC1` (stereo not drawn) [Compound 118, 3-(5-(4-(3-(1-(4-(4-amino-3-(4-phenoxyphenyl)-1H-pyrazolo[3,4-d]pyrimidin-1-yl)piperidine-1-carbonyl)piperidin-4-yl)propyl)piperazin-1-yl)-1-oxoisoindolin-2-yl)piperidine-2,6-dione], the pIC50 in assay [1] was 5.00 to 6.00. Moreover, in assay [2], the pIC50 was less than 5.00. In assay [3], this compound showed a Dmax greater than 75% and a DC50 greater than 50 nM.
On the same counts, the results for `Nc1ncnc2c1c(-c1ccc(Oc3ccccc3)cc1)nn2C1CCN(C(=O)N2CCN(CCCN3CCN(c4ccc5c(c4)C(=O)N(C4CCC(=O)NC4=O)C5=O)CC3)CC2)CC1` (stereo not drawn) [Compound 119, 5-(4-(3-(4-(4-(4-amino-3-(4-phenoxyphenyl)-1H-pyrazolo[3,4-d]pyrimidin-1-yl)piperidine-1-carbonyl)piperazin-1-yl)propyl)piperazin-1-yl)-2-(2,6-dioxopiperidin-3-yl)isoindoline-1,3-dione] are less than 5.00, 5.00 to 6.00, greater than 75% and greater than 50 nM.
The corresponding values for `Nc1ncnc2c1c(-c1ccc(Oc3ccccc3)cc1)nn2C1CCN(C(=O)N2CCN(CCCN3CCN(c4ccc5c(c4)CN(C4CCC(=O)NC4=O)C5=O)CC3)CC2)CC1` (stereo not drawn) [Compound 120, 3-(5-(4-(3-(4-(4-(4-amino-3-(4-phenoxyphenyl)-1H-pyrazolo[3,4-d]pyrimidin-1-yl)piperidine-1-carbonyl)piperazin-1-yl)propyl)piperazin-1-yl)-1-oxoisoindolin-2-yl)piperidine-2,6-dione] are less than 5.00, less than 5.00, greater than 75% and greater than 50 nM.
On the same counts, the results for `Nc1ncnc2c1c(-c1ccc(Oc3ccccc3)cc1)nn2C1CCN(C(=O)N2CCN(CCCC3CCN(c4ccc5c(c4)C(=O)N(C4CCC(=O)NC4=O)C5=O)CC3)CC2)CC1` (stereo not drawn) [Compound 121, 5-(4-(3-(4-(4-(4-amino-3-(4-phenoxyphenyl)-1H-pyrzolo[3,4-d]pyrimidin-1-yl)piperidine-1-carbonyl)piperazin-1-yl)propyl)piperidin-1-yl)-2-(2,6-dioxopiperidin-3-yl)isoindoline-1,3-dione] are 5.00 to 6.00, 5.00 to 6.00, greater than 75% and greater than 50 nM.
Regarding `Nc1ncnc2c1c(-c1ccc(Oc3ccccc3)cc1)nn2C1CCN(C(=O)N2CCN(CCCC3CCN(c4ccc5c(c4)CN(C4CCC(=O)NC4=O)C5=O)CC3)CC2)CC1` (stereo not drawn) [Compound 122, 3-(5-(4-(3-(4-(4-(4-amino-3-(4-phenoxyphenyl)-1H-pyrazolo[3,4-d]pyrimidin-1-yl)piperidine-1-carbonyl)piperazin-1-yl)propyl)piperidin-1-yl)-1-oxoisoindolin-2-yl)piperidine-2,6-dione], in assay [1], the pIC50 was 5.00 to 6.00. The pIC50 in assay [2] was 5.00 to 6.00. In assay [3], this compound returned a maximal degradation (Dmax) greater than 75% and a 50% degradation concentration (DC50) greater than 50 nM.
In the case of `Nc1ncnc2c1c(-c1ccc(Oc3ccccc3)cc1)nn2C1CCN(C(=O)N2CCN(CCCN3CCC(c4ccc5c(c4)C(=O)N(C4CCC(=O)NC4=O)C5=O)CC3)CC2)CC1` (stereo not drawn) [Compound 123, 5-(1-(3-(4-(4-(4-amino-3-(4-phenoxyphenyl)-1H-pyrazolo[3,4-d]pyrimidin-1-yl)piperidine-1-carbonyl)piperazin-1-yl)propyl)piperidin-4-yl)-2-(2,6-dioxopiperidin-3-yl)isoindoline-1,3-dione], the pIC50 in assay [1] is 5.00 to 6.00. Moreover, in assay [2], the pIC50 is 5.00 to 6.00. Further, in assay [3], the Dmax was greater than 75% and the DC50 was greater than 50 nM.
As for `Nc1ncnc2c1c(-c1ccc(Oc3ccccc3)cc1)nn2C1CCN(C(=O)N2CCN(CCCN3CCC(c4ccc5c(c4)CN(C4CCC(=O)NC4=O)C5=O)CC3)CC2)CC1` (stereo not drawn) [Compound 124, 3-(5-(1-(3-(4-(4-(4-amino-3-(4-phenoxyphenyl)-1H-pyrazolo[3,4-d]pyrimidin-1-yl)piperidine-1-carbonyl)piperazin-1-yl)propyl)piperidin-4-yl)-1-oxoisoindolin-2-yl)piperidine-2,6-dione], the pIC50 in assay [1] was less than 5.00. For the same compound, the pIC50 in assay [2] is less than 5.00. Also, in assay [3], the greatest degradation seen (Dmax) is greater than 90% and the half-maximal degradation concentration (DC50) was greater than 50 nM.
With `Nc1ncnc2c1c(-c1ccc(Oc3ccccc3)cc1)nn2C1CCN(C(=O)N2CCC(CCCC3CCN(c4ccc5c(c4)C(=O)N(C4CCC(=O)NC4=O)C5=O)CC3)CC2)CC1` (stereo not drawn) [Compound 125, 5-(4-(3-(1-(4-(4-amino-3-(4-phenoxyphenyl)-1H-pyrazolo[3,4-d]pyrimidin-1-yl)piperidine-1-carbonyl)piperidin-4-yl)propyl)piperidin-1-yl)-2-(2,6-dioxopiperidin-3-yl)isoindoline-1,3-dione], the pIC50 in assay [1] was 5.00 to 6.00; in assay [2], less than 5.00. For the same compound, the maximal degradation (Dmax) in assay [3] is greater than 90%. This compound also returned a DC50 in assay [3] greater than 50 nM.
On the same counts, the results for `Nc1ncnc2c1c(-c1ccc(Oc3ccccc3)cc1)nn2C1CCN(C(=O)N2CCC(CCCC3CCN(c4ccc5c(c4)CN(C4CCC(=O)NC4=O)C5=O)CC3)CC2)CC1` (stereo not drawn) [Compound 126, 3-(5-(4-(3-(1-(4-(4-amino-3-(4-phenoxyphenyl)-1H-pyrazolo[3,4-d]pyrimidin-1-yl)piperidine-1-carbonyl)piperidin-4-yl)propyl)piperidin-1-yl)-1-oxoisoindolin-2-yl)piperidine-2,6-dione] are less than 5.00, 5.00 to 6.00, greater than 90% and greater than 50 nM.
The corresponding values for `Nc1ncnc2c1c(-c1ccc(Oc3ccccc3)cc1)nn2C1CCN(C(=O)N2CCC(CCCN3CCC(c4ccc5c(c4)C(=O)N(C4CCC(=O)NC4=O)C5=O)CC3)CC2)CC1` (stereo not drawn) [Compound 127, 5-(1-(3-(1-(4-(4-amino-3-(4-phenoxyphenyl)-1H-pyrazolo[3,4-d]pyrimidin-1-yl)piperidine-1-carbonyl)piperidin-4-yl)propyl)piperidin-4-yl)-2-(2,6-dioxopiperidin-3-yl)isoindoline-1,3-dione] are less than 5.00, 5.00 to 6.00, greater than 90% and greater than 50 nM.
The corresponding values for `Nc1ncnc2c1c(-c1ccc(Oc3ccccc3)cc1)nn2C1CCN(C(=O)N2CCC(CCCN3CCC(c4ccc5c(c4)CN(C4CCC(=O)NC4=O)C5=O)CC3)CC2)CC1` (stereo not drawn) [Compound 128, 3-(5-(1-(3-(1-(4-(4-amino-3-(4-phenoxyphenyl)-1H-pyrazolo[3,4-d]pyrimidin-1-yl)piperidine-1-carbonyl)piperidin-4-yl)propyl)piperidin-4-yl)-1-oxoisoindolin-2-yl)piperidine-2,6-dione] are less than 5.00, 5.00 to 6.00, greater than 90% and greater than 50 nM.
As for `Nc1ncnc2c1c(-c1ccc(Oc3ccccc3)cc1)nn2[C@@H]1CCCN(CC2CCN(CC3CCN(c4ccc5c(c4)C(=O)N(C4CCC(=O)NC4=O)C5=O)CC3)CC2)C1` (stereo partly drawn) [Compound 129, 5-(4-((4-(((R)-3-(4-amino-3-(4-phenoxyphenyl)-1H-pyrazolo[3,4-d]pyrimidin-1-yl)piperidin-1-yl)methyl)piperidin-1-yl)methyl)piperidin-1-yl)-2-(2,6-dioxopiperidin-3-yl)isoindoline-1,3-dione], the pIC50 in assay [1] and in assay [2] was less than 5.00 each time. The compound further registered a Dmax in assay [3] greater than 75%. In addition, the half-maximal degradation concentration (DC50) in assay [3] was in the range of 10 to 50 nM.

Usually Dmax stands for the greatest extent of degradation seen. Lower therefore signals shallow degradation. For orientation: DC50 means the midpoint of the concentration-degradation curve.
